According to US20120082736A1, “Small-molecule TNF modulator to reduce the side effects of chemotherapy and radiotherapy” (GeneBlue Corporation, priority 2010, published 2012):
Entries after “also recorded” stand apart in the source; their conditions may differ.

Experiments:
[1] = test system: apoptotic liver cells; assay: TUNEL assay for apoptotic liver cells after liver irradiation (Example 8); assay type: in vivo, mice; details: for numbers of TUNEL positive cells induced by irradiation: 15 Gy, relative to non-irradiated controls, irradiated vehicle 4.1
Description: Mice were pre-treated with various doses of UTL-5g (7.5, 15, 30, and 60 mg/kg, i.p.) or control vehicle at 1 hr prior to liver radiation with 15 Gy. […] Representative liver sections showing TUNEL positive cells (green) counter-stained with […] (4′-6-diamidino-2-phenylindole) for nuclei under fluorescent microscope (40×) (6B). RT: radiation treatment.
To further analyze the radioprotective effect of UTL-5g, we examined the number of liver apoptotic cells by in situ TUNEL staining At the end of treatment, liver tissue sections were prepared, fixed and stained with TUNEL staining for apoptotic cells. There were “spontaneous” apoptotic liver cells in control animals as detected by TUNEL staining (20/five random fields), approximately 0.2% of total liver cells. […] The radioprotective effect of UTL-5g was dose-dependent.

[2] = test system: BDF1 female mice treated with cisplatin; assay: Effect of pretreatment on BUN/creatinine, AST/ALT, WBC/platelet in blood of cisplatin-treated mice (Example 2); assay type: in vivo; details: daily ×5, blood day 6
Description: Gp 1: medium (saline). Gp 2: saline followed by cisplatin (2.5 mg/kg) 30 min later. Gp 3: UTL-5g (15 mg/kg) followed by cisplatin (2.5 mg/kg) 30 min later. Gp 4: UTL-5g (30 mg/kg) followed by cisplatin (2.5 mg/kg) 30 min later. Gp 5: UTL-5g (60 mg/kg) followed by cisplatin (2.5 mg/kg) 30 min later. Gp 6: amifostine (200 mg/kg) followed by cisplatin (2.5 mg/kg) 30 min later; Gp 7: saline followed by cisplatin (5 mg/kg) 30 min later. Gp 1-Gp 6 were daily ×5, but Gp 7 was by single dose on day 0 only. StDev is shown for each Gp (n=5 for each group except for Gp 7, n=3). ** two-tailed p<0.005 vs medium control by Student's t-test.
(§1) Gp 1: medium (saline). Gp 2: saline followed by cisplatin (2.5 mg/kg) 30 min later. Gp 3: UTL-5g (15 mg/kg) followed by cisplatin 30 min later. Gp 4: UTL-5g (30 mg/kg) followed by cisplatin (2.5 mg/kg) 30 min later. Gp 5: UTL-5g (60 mg/kg) followed by cisplatin (2.5 mg/kg) 30 min later. Gp 6: amifostine (200 mg/kg) followed by cisplatin (2.5 mg/kg) 30 min later. Gp 7: saline followed by cisplatin (5 mg/kg) 30 min later. Gp 1-Gp 6 were daily ×5, but Gp 7 was by single dose on day 0 only. StDev is shown for each Gp (n=5 for each group except n=4 for Gp 7). * P<0.05, ** p<0.005 vs. medium control (Gp 1) by Student's t-test (two-tailed).
as §1, with “p<0.005, *** p<0.0005” for “p<0.005”, “control” for “control (Gp 1)”
BDF1 female mice (average wt ˜20 g/mouse) were randomly divided into the following groups (5 mice per group) and each treated daily ×5 (starting from day 0) by ip injection (0.25 mL/mouse), except in Gp 7, each was treated by a single dose ip injection (0.25 mL/mouse) on day 0 only, as described below • Gp 1: medium (saline) followed by medium (saline) 30 min later • Gp 2: medium (saline) followed by cisplatin (2.5 mg/kg) 30 min later • Gp 3: UTL-5g (15 mg/kg) followed by cisplatin (2.5 mg/kg) 30 min later • Gp 4: UTL-5g (30 mg/kg) followed by cisplatin (2.5 mg/kg) 30 min later • Gp 5: UTL-5g (60 mg/kg) followed by cisplatin (2.5 mg/kg) 30 min later • Gp 6: amifostine (200 mg/kg) followed by cisplatin (2.5 mg/kg) 30 min later • Gp 7: medium (saline) followed by cisplatin (5 mg/kg) 30 min later (single dose on Day 0 only)
Preparation of the test samples are described below: • Cisplatin: Cisplatin was dissolved in saline (0.2 and 0.4 mg/mL in saline) for 2.5 and 5 mg/kg ip injection. • UTL-5g: The stock solution of UTL-5g was first dissolved in DMSO and equal volume of Cremophor/propylene glycol (60/40 v/v) was added to make a stock solution. Immediately before the injection, saline was added to this temporary solution at a 90:10 v/v ratio and mixed thoroughly. Three concentrations for ip injection were prepared (1.25, 2.5, and 5 mg/mL) so that the doses are equivalent to 15, 30, and 60 mg/kg with a 0.25 mL injection. • Amifostine: The stock solution of amifostine was dissolved in saline to the desired concentration (16 mg/mL) for the 200 mg/kg injection.
Cardiac puncture was used to obtain blood from each mouse on day 6. To assess liver/kidney protection by UTL-5g, all blood samples were analyzed for BUN, creatinine, AST, and ALT by the chemistry lab at Henry Ford Health System. Unopette® (Becton Dickinson, Franklin Lakes, N.J.) diluting systems and a hemocytometer were used to assess the effect of UTL-5g on WBC and platelet counts in blood.

[3] = UTL-5g 15, 30, 60 mg/kg ip 30 min before cisplatin 2.5 mg/kg
[4] = ip 30 min before cisplatin 2.5 mg/kg, UTL-5g 15, 30, 60 mg/kg, amifostine 200 mg/kg

SMILES: Cc1cc(C(=O)Nc2ccc(Cl)cc2Cl)no1 [UTL-5g]
- TUNEL positive cells, protective effect ([1]; UTL-5g 7.5 mg/kg i.p. 1 hr prior to 15 Gy, liver 2 hr after): no significant protective effect
- numbers of TUNEL positive cells induced by irradiation ([1]; UTL-5g 15 mg/kg): 3.3 fold
- numbers of TUNEL positive cells induced by irradiation ([1]; UTL-5g 30 mg/kg): 1.8 fold
- numbers of TUNEL positive cells induced by irradiation ([1]; UTL-5g 60 mg/kg): 1.4 fold
- number of apoptotic cells in liver, non-irradiated animals ([1]; UTL-5g alone at 30 and 60 mg/kg, no irradiation): slightly increased the number of apoptotic cells
- platelet count relative to control ([2]; UTL-5g 60 mg/kg ip 30 min before cisplatin 2.5 mg/kg): > 3 times of the control
- ALT levels, effect of pretreatment [2, 3]: also reduced by UTL-5g; also recorded: lowered the elevated levels
- AST levels, effect of pretreatment [2, 3]: reduced by UTL-5g; also recorded: lowered the elevated levels
- WBC count, effect of pretreatment ([2]; UTL-5g ip 30 min before cisplatin 2.5 mg/kg): did not significantly increase the WBC count
- BUN levels, effect of pretreatment [2, 4]: suppressed by UTL-5g in a dose-dependent manner; also recorded: lowered the elevated levels
- creatinine, effect of pretreatment [2, 4]: Essentially the same results; also recorded: lowered the elevated levels
- platelet count, effect of pretreatment ([2]; ip 30 min before cisplatin 2.5 mg/kg, UTL-5g 15, 30, 60 mg/kg, amifostine 200 mg/kg, vs Gp 1 (Control)): increased platelet count in a dose-dependent manner
